The test system of series [1] is MDA-MB-231 cells. Description: Cell-cycle analysis by flow cytometry. It is filed as cell-based, human. The conditions noted are these: 48 h, 1 or 3 μM, synchronized culture. The procedure:
MDA-MB-231 cells were added at a density of 5 x 10^5 cells in 25 cm^2 culture bottles (TPP^TM) with 5 mL of medium supplemented with 10% FBS. After 36 h, the media was removed, and 5 mL of fresh media without FBS was added. The bottles were then incubated for 48 h for cell-cycle synchronization. Then, the cells were treated with the test compounds (1 or 3 μM) for 48 h. Subsequently, the cells were harvested by trypsinization, and their chromatin was fixed and stained following the manufacturer’s instructions (cat. no. 340242, BD Biosciences^TM). Shortly thereafter, the cells were centrifuged at 300 rcf for 5 min and resuspended in 1 mL of buffer (sodium citrate, sucrose, and DMSO) three times. From this suspension, 1 x 10^6 cells were centrifuged at 400 rcf for 5 min, resuspended in 250 μL of solution A (trypsin in a spermine tetrahydrochloride detergent buffer) and incubated for 10 min at room temperature. Next, 200 μL of solution B (trypsin inhibitor and ribonuclease A in citrate-stabilizing buffer with spermine tetrahydrochloride) was added, and the suspension was incubated for 10 min at room temperature. Finally, 200 μL of solution C (propidium iodide (PI) and spermine tetrahydrochloride in citrate stabilizing buffer) was added, and the sample was incubated for 15 min in the refrigerator. The samples were then analyzed by flow cytometry using a BD Accuri C5 (BD Biosciences^TM) system (excitation at 488 nm and emission detected with a 585/40 nm filter).
(In general: In flow cytometry, cells or beads pass a laser one at a time.)

The test system of series [2] is MDA-MB-231 cells. Description: Boyden chamber (transwell) migration assay. It is filed as cell-based, human. The conditions noted are these: MDA-MB-231, transwell, 6 h, read-out: IC50 Cell migration. As for the experimental part: Transwells containing 0.3 cm^2 inserts with 8.0 μm pore polyethylene terephthalate membranes (Corning Falcon^TM) were used to quantify cell migration. MDA-MB-231 cells were added at a density of 4 x 10^4 cells/insert in serum-free media (300 μL) in the upper chambers. In the lower chambers, 700 μL of medium supplemented with 10% FBS was added. […] The systems were incubated at 37°C for 6 h. Next, the cells inside the insert were removed with a cotton swab and the cells under the membrane were fixed with methanol and stained with toluidine blue for 5 min. Pictures of the stained membrane were taken under a 10X objective (Optiphase), and the cells were quantified using NIS Elements software (NIKON). Two independent experiments were conducted in duplicate.

For series [3], the system named is MDA-MB-231 cells. Put plainly: Apoptosis analysis (FITC-Annexin V/PI flow cytometry). In kind it is cell-based, human. The conditions noted are these: for dead cells: 72 h after treatment; for apoptotic cells: after 24 h. As for the experimental part: Apoptosis was measured by flow cytometry via double staining with FITC-Annexin V and PI (cat. no. 556570, BD Pharmigen^TM). Cells were prepared in the same way as described for the cell-cycle analysis, except that the cell-synchronization step was omitted in this case. After treatment with the test compounds for 24 or 72 h, the cells were harvested by trypsinization and centrifuged for 10 min at 150 rcf. The pellet was resuspended in annexin V binding buffer at a concentration of 10^6 cells/mL. Then, 100 μL of this suspension was collected and stained with 5 μL of PI and FITC-Annexin V for 15 min at room temperature in the dark. After this, 400 μL of annexin V binding buffer was added, and the samples were analyzed using a BD Accuri C5 cytometer with excitation at 488 nm and emission detected with 533/30 nm (FITC) and 670 LP nm (PI) filters.

The next series relates to MDA-MB-231. Description: Cytotoxicity assay (MTS). As to conditions: for IC50: 72 h MTS assay; for dead cells in MTS studies: similar concentrations as apoptosis analyses. It is filed as cell-based, human. The procedure: (§1) MDA-MB-231, DU-145 and FGH cell lines were plated at a concentration of 4 x 10^3 cells/well in 96-well culture plates (TPP^TM). After 24 h, 10 concentrations (100–0.16 μM) of the test compounds were added in triplicate to the wells, and the plates were incubated for 72 h at 37°C in a 5% CO2 humidified atmosphere (if necessary). Then, 20 μL of the MTS reagent (CellTiter 96® AQueous One Solution Cell Proliferation Assay, Promega) was added to the wells, and the cells were incubated for 3 to 4 h at 37°C. Next, absorbance was measured at 490 nm using a spectrophotometer (SpectraMax Plus384, Molecular Devices). The percentage of unviable cells was determined in relation to the control wells, and at least two independent experiments were carried out for each test compound.

For the next series, the system named is DU-145. Description: Cytotoxicity assay (MTS). It is filed as cell-based, human. As to conditions: 72 h MTS assay. The procedure: as §1
In another series the test system is FGH. Description: Cytotoxicity assay (MTS). It is filed as cell-based, human. The conditions noted are these: for IC50: 72 h MTS assay, normal fibroblasts; for cell death in FGH cells: concentrations around the IC50 values in MDA-MB-231 cells. As for the experimental part: (§2) Then, 20 μL of the MTS reagent (CellTiter 96® AQueous One Solution Cell Proliferation Assay, Promega) was added to the wells, and the cells were incubated for 3 to 4 h at 37°C. Next, absorbance was measured at 490 nm using a spectrophotometer (SpectraMax Plus384, Molecular Devices). The percentage of unviable cells was determined in relation to the control wells, and at least two independent experiments were carried out for each test compound.

In series [4] the target is T1, tubulin (Sus scrofa, UniProt P02550+P02554). Description: Light-scattering-based tubulin polymerization assay. In kind it is biochemical. The conditions noted are these: read-out: IC50 Tubulin assembly. As for the experimental part:
To independently confirm the ability of the compounds to inhibit tubulin assembly, a second tubulin polymerization assay was carried out. We added 20 μL aliquots of the test compounds solubilized in 10% DMSO (in triplicate) to the wells of a 96-well culture plate (TPP^TM). Then, 180 μL of 3 mg/mL tubulin (>97% pure, HTS03, Cytoskeleton) in G-PEM buffer (80 mM PIPES, 1 mM EGTA, 2 mM GTP, 1 mM MgCl2 and glycerol 5%, pH 7,0) was added to the wells, and the absorbance at 340 nm was measured every 40 s for 1 h using a SpectraMax Plus384.

Series [5] relates to MDA-MB-231 cells. Put plainly: Wound healing assay. The conditions noted are these: 10 μM, 22 h. It is filed as cell-based, human. As for the experimental part:
To qualitatively evaluate directional cell migration, MDA-MB-231 cells were seeded at a density of 1 x 10^5 cells/well in 24-well culture plates (TPP^TM) and allowed to reach a confluent monolayer. Then, the wells were scratched using a sterile 100 μL pipette tip. The medium was removed and fresh medium without FBS was added to clean the debris. Next, the cells were incubated for 22 h at 37°C with supplemented medium (10% FBS) and different concentrations of test compounds (10 μM, 1 μM and 0.250 μM). When measuring the wound closure, the wells were photographed under a 4X objective (Optiphase) at 0 and 22 h. The images were analyzed using Image J software, and two independent experiments were conducted in triplicate.

A further series can be described thus: Cytotoxicity assay (MTS). It is filed as cell-based, human. The conditions noted are these: human, FGH cells (normal fibroblasts); 72 h MTS assay, normal fibroblasts. The procedure:
as §2
For orientation: Tetrazolium assays rely on reduction of a dye to a coloured formazan, in cell work by metabolically active cells.

Series [6] concerns the target T1, tubulin. Description: Fluorescence-based tubulin polymerization assay. In kind it is biochemical. The conditions noted are these: read-out: IC50 Tubulin assembly. The procedure:
Tubulin polymerization assay kit B[…] (Cytoskeleton) was used according to the manufacturer's instructions. […] The curves were normalized, and the percentage of inhibition was calculated by comparing the polymerization reaction at 25 min relative to vehicle control.

Read-outs that look alike come from different tables or passages of the source. A value given as a limit tells only on which side of the number the result lay.

T1 sequence (P02550 whole entry): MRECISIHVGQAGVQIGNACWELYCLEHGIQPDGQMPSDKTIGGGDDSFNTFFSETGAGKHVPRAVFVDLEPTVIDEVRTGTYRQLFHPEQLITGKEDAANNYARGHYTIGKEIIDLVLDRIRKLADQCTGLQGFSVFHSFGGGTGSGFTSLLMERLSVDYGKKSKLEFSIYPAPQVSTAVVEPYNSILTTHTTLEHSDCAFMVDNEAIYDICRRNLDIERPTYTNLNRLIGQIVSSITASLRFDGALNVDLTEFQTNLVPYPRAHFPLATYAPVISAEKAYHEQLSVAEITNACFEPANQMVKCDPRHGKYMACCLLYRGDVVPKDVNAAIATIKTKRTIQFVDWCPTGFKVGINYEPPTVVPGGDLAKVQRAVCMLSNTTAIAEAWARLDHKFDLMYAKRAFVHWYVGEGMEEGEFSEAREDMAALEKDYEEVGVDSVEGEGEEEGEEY
T1 sequence (P02554 whole entry): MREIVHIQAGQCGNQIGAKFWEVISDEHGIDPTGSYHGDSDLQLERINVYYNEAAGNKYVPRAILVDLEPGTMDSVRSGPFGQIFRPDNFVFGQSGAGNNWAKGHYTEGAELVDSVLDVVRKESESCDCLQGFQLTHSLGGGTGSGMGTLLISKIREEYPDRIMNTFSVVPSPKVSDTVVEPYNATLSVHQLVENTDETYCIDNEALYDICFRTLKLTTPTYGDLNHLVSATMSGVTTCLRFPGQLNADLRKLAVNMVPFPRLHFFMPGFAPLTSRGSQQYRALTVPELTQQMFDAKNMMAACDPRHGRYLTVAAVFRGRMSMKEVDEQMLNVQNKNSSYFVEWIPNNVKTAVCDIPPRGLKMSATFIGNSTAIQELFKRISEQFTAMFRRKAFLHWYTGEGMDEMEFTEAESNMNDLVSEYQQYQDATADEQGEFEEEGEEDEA

Turning to `O=C1CCCC2=C1C(c1cccs1)c1ccc3ccccc3c1N2` (racemic) [Compound 9], the “cells arrested in G2” value in the series with MDA-MB-231 cells [1] is recorded as 53.6%. For the same compound, the IC50 is 1345 ± 7 nM in the series on MDA-MB-231 cells [2]; 1100 ± 200 nM in the series with MDA-MB-231; 1000 ± 300 nM in the series on DU-145; over 100000 nM in the series with FGH; 5000 ± 2000 nM at tubulin [4]. In the series on MDA-MB-231 cells [3], this compound registered a dead cells of 75%. This compound gave an apoptotic cells with MDA-MB-231 cells [3] of 54.6%. The “dead cells in MTS studies” value in the series with MDA-MB-231 came to 71%. Also, the “cell death in FGH cells” value in the series with FGH worked out at 13%. In the series with MDA-MB-231 cells [5], the “inhibition of wound closure (cell migration)” value (“inhibition of wound closure” below) is on record as “inhibit cell migration”.

On to `COc1cc2c(c(OC)c1OC)-c1ccc(OC)c(=O)cc1[C@@H](NC(C)=O)CC2` [Colchicine, colchicine, reference compound], for which the “cells arrested in G2” value in the series with MDA-MB-231 cells [1] amounted to 42.9%. In the series with MDA-MB-231 cells [3], this compound displayed a dead cells of 72% and an apoptotic cells of 65%. The IC50 with MDA-MB-231 came to 20 ± 10 nM. The compound also came in with an IC50 in the series on DU-145 of 25 ± 3 nM. This compound also had an IC50 at 72 h in “Cytotoxicity assay (MTS)” of under 20 nM.

For `O=C1CCCC2=C1C(c1ccc3c(c1)OCO3)c1ccc3ccccc3c1N2` (stereo not drawn) [Compound 6], the “cells arrested in G2” value in the series with MDA-MB-231 cells [1] was determined as 53.6%. In addition, the IC50 is 1700 ± 700 nM in the series with MDA-MB-231 cells [2]; 13000 ± 2000 nM at tubulin [6]; 3000 ± 1000 nM in the series on MDA-MB-231; 3200 ± 700 nM with DU-145; over 100000 nM with FGH. In the series on MDA-MB-231 cells [3], this compound gave a dead cells of 55%. Further, in the series on MDA-MB-231 cells [3], the apoptotic cells was 69.4%. Moreover, the “dead cells in MTS studies” value in the series with MDA-MB-231 worked out at 51%. In the series with FGH, the “cell death in FGH cells” value amounted to 3%. Moreover, in the series on MDA-MB-231 cells [5], the “inhibition of wound closure” value is given as “inhibit cell migration”.

For the compound `O=C1CCCC2=C1[C@@H](c1cccc([N+](=O)[O-])c1)c1ccc3ccccc3c1N2` [Compound 7], the “cells arrested in G2” value with MDA-MB-231 cells [1] amounted to 49.1%. In addition, the IC50 with MDA-MB-231 cells [2] (Homo sapiens) came out at 294 ± 5 nM. In the series with MDA-MB-231 cells [3], the dead cells worked out at 67% and the apoptotic cells is recorded as 54.2%. Further, the IC50 in the series on MDA-MB-231 (Homo sapiens, MDA-MB-231) amounted to 190 ± 7 nM. Moreover, in the series with MDA-MB-231, the “dead cells in MTS studies” value was found to be 69%. Moreover, the IC50 with DU-145 (Homo sapiens, DU-145) worked out at 308 ± 50 nM. Further, in the series on FGH, the “SI (selectivity index)” value is given as over 100 and the “cell death in FGH cells” value came to 20%. For the same compound, the IC50 at 72 h in “Cytotoxicity assay (MTS)” was over 100000 nM. In addition, in the series with MDA-MB-231 cells [5], the “inhibition of wound closure” value was “inhibit cell migration”.

Values taken from publication PMC4980028, “Discovery of a Series of Acridinones as Mechanism-Based Tubulin Assembly Inhibitors with Anticancer Activity” (PLoS ONE, 2016).
